Measured values taken from patent publication US20080161268A1, “[…] AMMONIUM SALT ANTIBACTERIAL AND WATER-BORNE COATING MATERIAL HAVING […] CONTAINING THE SAME” (COMPAL ELECTRONICS, INC., priority 2006, published 2008).

Assays:
Bacteria = test: Antibiotic experiment according to Japanese Standards Testing Method (JISZ 2801-2000); assay type: cell-based; conditions: for Antimicrobial Activity Value: versus control group (neat cement paint)
Procedure: After formulating the organic quaternary ammonium salt having the siloxane structure to have a concentration of 5% and adjusting the pH value to be 7, an antibiotic experiment was performed according to Japanese Standards Testing Method (JISZ 2801-2000).

[1] = Test of the stability of antibacterial in latex paint; assay type: physicochemical; conditions: pH about 7
Procedure: Four quaternary ammonium salt antibacterials A, B, C, and D shown in table 1 were prepared respectively, in which A was a quaternary ammonium salt antibacterial having the siloxane structure, and the other three antibacterials B, C, and D were quaternary ammonium salt antibacterials having no siloxane structure. Then, the four antibacterials A, B, C, and D were respectively added into a latex paint, and formulated to have a concentrations of 500, 1500, 2500, and 5000 ppm, and the pH value was adjusted to about 7. Changes of the antibacterials in the latex paint were observed.

[2] = Potential measurement (surface potential, Zetasizer Nano ZS); assay type: physicochemical; conditions: concentration about 5%, pH 0-7, FIG. 1
Procedure: The methanol solution including 45% of the organic quaternary ammonium salt A having the siloxane structure and the methanol solution including 45% of the organic quaternary ammonium salt Bhaving no siloxane structure were respectively adjusted to a pH value of 0-7 by 0.1 N HCl and 0.1 N NaOH, and formulated to have a concentration of about 5%. The surface potentials were measured with Zetasizer, Nano ZS (Malvern, United Kingdom).

With `CCCCCCCCCCCCCCCCCC[N+](C)(C)[Si](OC)(OC)OC.[Br-]` [Antibacterial A] as the compound, how does the “Bacteriostatic Ratio” value (Bacteria; 0 h) read?
Its value is “less than 90%”.

And the “Bacteria count at 0 h * 3 sheets” value (Bacteria; 0 h, concentration 5%, pH 7)?
Its value is 3.73 × 10^5.

What about the “Antimicrobial Activity Value” (Bacteria; 0 h) of the same compound?
Its value is 0.47.

And the “Bacteriostatic Ratio” value (Bacteria; 3 h)?
Its value is 99%.

What about the “Bacteria count at 3 h * 3 sheets” value (Bacteria; 3 h, concentration 5%, pH 7) of the same compound?
The value was 1.48 × 10^3.

And the “Antimicrobial Activity Value” (Bacteria; 3 h)?
The value was 2.95.

And the “Bacteriostatic Ratio” value (Bacteria; 24 h)?
Its value is 99.99%.

And the “Bacteria count at 24 h * 3 sheets” value (Bacteria; 24 h, concentration 5%, pH 7)?
The value was under 10.

What about the “Antimicrobial Activity Value” (Bacteria; 24 h) of the same compound?
Its value is 4.89.

And the “Bacteriostatic Ratio” value (Bacteria; concentration 5%, pH 7, time not given)?
Its value is “greater than 99.99%”.

And the “Miscibility in the latex paint” value ([1]; 500-5000 ppm)?
Its value is “good miscibility”.

And the “Changes of the antibacterial in the latex paint” value (shortened to “Changes of the antibacterial”) ([1]; content of antibacterial 500 ppm)?
The value was “miscible”.

What about the “Changes of the antibacterial” value ([1]; content of antibacterial 1500 ppm) of the same compound?
Its value is “miscible”.

And the “Changes of the antibacterial” value ([1]; content of antibacterial 2500 ppm)?
Its value is “miscible”.

And the “Changes of the antibacterial” value ([1]; content of antibacterial 5000 ppm)?
Its value is “miscible”.

What about the “Electronegativity (surface potential) versus pH value” [2] of the same compound?
The value was “increased with the increment of pH value”.
